Assay [1] addresses T1, pancreatic lipase (PL) (Sus scrofa, UniProt P00591).
T1 construct: purchased Sigma Aldrich Co. (St Louis, MO, USA)
T1 sequence (P00591 1-450): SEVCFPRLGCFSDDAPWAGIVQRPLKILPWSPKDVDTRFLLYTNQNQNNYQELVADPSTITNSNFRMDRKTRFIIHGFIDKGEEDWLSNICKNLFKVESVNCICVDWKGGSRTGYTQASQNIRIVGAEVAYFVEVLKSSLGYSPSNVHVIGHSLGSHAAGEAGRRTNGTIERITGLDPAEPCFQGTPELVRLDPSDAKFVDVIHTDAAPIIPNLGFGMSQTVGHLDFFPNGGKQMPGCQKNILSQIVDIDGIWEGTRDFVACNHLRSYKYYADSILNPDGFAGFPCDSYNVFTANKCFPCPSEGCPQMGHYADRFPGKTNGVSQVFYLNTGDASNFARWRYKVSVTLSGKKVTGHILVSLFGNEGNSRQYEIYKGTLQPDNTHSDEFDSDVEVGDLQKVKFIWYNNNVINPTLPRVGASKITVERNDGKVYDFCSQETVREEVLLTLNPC
Nature of the assay: Pancreatic lipase (PL) inhibition assay (pNP laurate method). It counts as biochemical. The settings on record: mean ± SD; triplicate; pNP laurate substrate, 30 min at 37 °C, Tris buffer pH 8.2; read-out: IC50 Values (μM) Against PL. The method, then: 3.6. Pancreatic Lipase (PL) Inhibition Assay
This assay was carried out using p-nitrophenyl laurate (pNP laurate) method with slight modification. In detail, 150 µL lipase solution (10 mg/mL, dissolved in the 0.1 M Tris buffer) was mixed with 50 µL tested sample solution (inhibitors) in a 1.5 mL centrifuge tube, then 350 µL 0.1 M Tris buffer (pH = 8.2) was added and pre-incubated. After the addition of 450 µL pNP laurate (substrate), the reaction was incubated for 30 min at 37 °C. The mixtures were heated in boiling water for 5 min to terminate the reaction. After cooling to RT, the tube was centrifuged at 12,000 rpm for 3 min. A portion of 100 µL of mixture was added into a 96-well plate, which was measured at 405 nm. The percentage of inhibitory activities was calculated using the formula below. All data were performed in triplicate, and a logarithmic regression curve was established to calculate IC50 values. (2) Inhibition% = [1 - (Asample - Ablank/Atest - Acontrol)] × 100 where Asample is the absorbance of the mixture of sample solution, pNP solution and enzyme solution; Ablank is the absorbance of the mixture of sample solution and pNP solution without enzyme; Atest is the absorbance of the mixture of Tris buffer, pNP solution and enzyme solution; Acontrol is the absorbance of the mixture of Tris buffer and pNP solution without enzyme.

For assay [2], the target named is T2, porcine pancreatic α-amylase (PPA) (Sus scrofa, UniProt P00690).
T2 sequence (P00690 16-511): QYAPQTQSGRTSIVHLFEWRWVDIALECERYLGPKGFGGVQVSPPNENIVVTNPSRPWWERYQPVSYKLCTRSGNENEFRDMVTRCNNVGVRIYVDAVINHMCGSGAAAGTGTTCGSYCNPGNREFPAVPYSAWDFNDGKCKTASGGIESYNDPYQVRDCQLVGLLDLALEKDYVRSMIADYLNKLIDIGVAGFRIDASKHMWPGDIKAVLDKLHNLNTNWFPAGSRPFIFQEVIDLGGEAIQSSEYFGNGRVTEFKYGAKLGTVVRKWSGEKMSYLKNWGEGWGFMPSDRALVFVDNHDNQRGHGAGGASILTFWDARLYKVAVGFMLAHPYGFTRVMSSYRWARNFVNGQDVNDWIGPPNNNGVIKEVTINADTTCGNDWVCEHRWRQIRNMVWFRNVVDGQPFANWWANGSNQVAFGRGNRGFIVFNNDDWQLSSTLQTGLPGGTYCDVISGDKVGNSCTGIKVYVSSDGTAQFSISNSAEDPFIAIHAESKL
In words: Porcine pancreatic α-amylase (PPA) inhibition assay.

Assay [3] concerns the target sucrase. In words: Sucrase inhibition assay. Format: biochemical. The following applies: mean ± SD; triplicate; sucrose substrate, 37 °C; read-out: IC50 Values (μM) Against Sucrase. On the procedure: 3.5.2. Sucrase Inhibition Assay
The sucrase inhibition assay was performed according to the method outlined by Honda et al. with some modifications. In brief, 10 µL of enzyme solution (100 U/mL) and 30 µL of test sample solution with appropriate concentration (dissolved in distilled water) were added into the 96-well plates, and were incubated for 10 min at 37 °C. The reaction was conducted by addition of 100 µL of sucrose solution (60 mM, dissolved in 0.1 M phosphate buffer solution). Then, the mixture was added to 200 µL of 3,5-dinitrosalysilic acid, which was heated in boiling water for 5 min to stop the reaction. The absorbance of each tested compound was measured at 540 nm. The inhibition rates were calculated using the following equation. All experiments were measured in triplicate, and a logarithmic regression curve was established to calculate IC50 values. (1) Inhibition % = Acontrol - Asample/Acontrol × 100 where Acontrol represents the absorbance of the mixture of […], sucrose solution 3,5-dinitrosalysilic acid and enzyme solution; while the Asample is the absorbance of the mixture of phosphate buffer, sucrose solution 3,5-dinitrosalysilic acid and enzyme solution.

The target in assay [4] is T2, porcine pancreatic α-amylase (PPA). The arrangement: purchased Sigma Aldrich Co. (St Louis, MO, USA); method as in PMID 30360574. The settings on record: earlier study of the same authors; cited from earlier work.

Structures are written as SMILES. Where “and” joins values, the source holds several entries; their conditions need not be identical. Identical values can stand only once. Like-named read-outs stand apart in the source and are kept apart here. Where only a bound is given, the exact number is not on record here.

On to `CC(C)C(=O)OCC1OC(OC2C(CO)OC(OC3C(CO)OC(OC4C(CO)OC(O)C(O)C4O)C(O)C3O)C(O)C2O)C(O)C(O)C1OC1OC(C)C(NC2C=C(CO)C(O)C(O)C2O)C(O)C1O` (centres unmarked) [Compound 1], for which the IC50 (commonly the concentration at which inhibition is half-maximal) is 2.16 ± 0.6 µM in assay [1], 0.22 ± 0.04 µM in assay [2] and 5.5 ± 0.09 µM in assay [3].

On to `CCC(C)C(=O)OCC1OC(OC2C(CO)OC(OC3C(CO)OC(OC4C(CO)OC(O)C(O)C4O)C(O)C3O)C(O)C2O)C(O)C(O)C1OC1OC(C)C(NC2C=C(CO)C(O)C(O)C2O)C(O)C1O` (centres unmarked) [Compound 2, D6-O-2-methyl-butyryl-acarviostatin I03], for which the IC50 in assay [1] was 4.92 ± 0.2 µM; in assay [2], 0.15 ± 0.01 µM; in assay [3], 3.12 ± 0.1 µM.

Regarding `CC(C)C(=O)OCC1OC(OC2C(CO)OC(OC3C(CO)OC(OC4C(CO)OC(O)C(O)C4O)C(O)C3O)C(O)C2O)C(O)C(O)C1OC1OC(C)C(NC2C=C(CO)C(OC3OC(CO)C(OC4OC(C)C(NC5C=C(CO)C(O)C(O)C5O)C(O)C4O)C(O)C3O)C(O)C2O)C(O)C1O` (centres unmarked) [Compound 3], the IC50 in assay [1] came out at 0.82 ± 0.08 µM; in assay [2] (read-out: IC50 Values (μM) Against PPA, mean ± SD, acarbose as positive control), 0.04 ± 0.01 µM; in assay [3], 1.45 ± 0.07 µM.

With `CC(C)CC(=O)OC[C@H]1O[C@H](O[C@H]2[C@H](O)[C@@H](O)[C@@H](O[C@H]3[C@H](O)[C@@H](O)[C@@H](O[C@H]4[C@H](O)[C@@H](O)C(O)O[C@@H]4CO)O[C@@H]3CO)O[C@@H]2CO)[C@H](O)[C@@H](O)[C@@H]1O[C@H]1O[C@H](C)[C@@H](N[C@H]2C=C(CO)[C@@H](O)[C@H](O)[C@H]2O)[C@H](O)[C@H]1O` (some centres unmarked) [Compound 4, isovalertatin M03], the IC50 was 3.2 ± 0.1 µM in assay [1], 0.34 ± 0.07 µM in assay [2] and 9.34 ± 0.12 µM in assay [3].

For `CC(=O)OC[C@H]1O[C@H](O[C@H]2[C@H](O)[C@@H](O)[C@@H](O[C@H]3[C@H](O)[C@@H](O)[C@@H](O[C@H]4[C@H](O)[C@@H](O)C(O)O[C@@H]4CO)O[C@@H]3CO)O[C@@H]2CO)[C@H](O)[C@@H](O)[C@@H]1O[C@H]1O[C@H](C)[C@@H](N[C@H]2C=C(CO)[C@@H](O)[C@H](O)[C@H]2O)[C@H](O)[C@H]1O` (some centres unmarked) [Compound 5, D6-O-acetyl-acarviostatin I03], the IC50 in assay [1] stood at 19.7 ± 1 µM; in assay [3], 2.98 ± 0.1 µM.

With `CCC(=O)OC[C@H]1O[C@H](O[C@H]2[C@H](O)[C@@H](O)[C@@H](O[C@H]3[C@H](O)[C@@H](O)[C@@H](O[C@H]4[C@H](O)[C@@H](O)C(O)O[C@@H]4CO)O[C@@H]3CO)O[C@@H]2CO)[C@H](O)[C@@H](O)[C@@H]1O[C@H]1O[C@H](C)[C@@H](N[C@H]2C=C(CO)[C@@H](O)[C@H](O)[C@H]2O)[C@H](O)[C@H]1O` (some centres unmarked) [Compound 6, D6-O-propionyl-acarviostatin I03], the IC50 in assay [1] came to 15.9 ± 0.6 µM; in assay [3], 2.36 ± 0.12 µM.

Regarding `CC(O)CC(=O)OC[C@H]1O[C@H](O[C@H]2[C@H](O)[C@@H](O)[C@@H](O[C@H]3[C@H](O)[C@@H](O)[C@@H](O[C@H]4[C@H](O)[C@@H](O)C(O)O[C@@H]4CO)O[C@@H]3CO)O[C@@H]2CO)[C@H](O)[C@@H](O)[C@@H]1O[C@H]1O[C@H](C)[C@@H](N[C@H]2C=C(CO)[C@@H](O)[C@H](O)[C@H]2O)[C@H](O)[C@H]1O` (stereo partly drawn) [Compound 7, D6-O-β-hydroxybutyryl-acarviostatin I03], the IC50 stood at 8.1 ± 0.6 µM in assay [1] and 3.68 ± 0.13 µM in assay [3].

Consider `CC(=O)OC[C@H]1O[C@H](O[C@H]2[C@H](O)[C@@H](O)[C@@H](O[C@H]3[C@H](O)[C@@H](O)[C@@H](O[C@H]4[C@H](O)[C@@H](O)C(O)O[C@@H]4CO)O[C@@H]3CO)O[C@@H]2CO)[C@H](O)[C@@H](O)[C@@H]1O[C@H]1O[C@H](C)[C@@H](N[C@H]2C=C(CO)[C@@H](O[C@H]3O[C@H](CO)[C@@H](O[C@H]4O[C@H](C)[C@@H](N[C@H]5C=C(CO)[C@@H](O)[C@H](O)[C@H]5O)[C@H](O)[C@H]4O)[C@H](O)[C@H]3O)[C@H](O)[C@H]2O)[C@H](O)[C@H]1O` (some centres unmarked) [Compound 8, D6-O-acetyl-acarviostatin II03], for which the “α-amylase IC50, fold stronger than acarbose” value in assay [4] was 540 fold. In addition, the IC50 in assay [1] turned out to be 2 ± 0.18 µM; in assay [3], 0.41 ± 0.05 µM.

Take `C[C@H]1O[C@H](O[C@H]2[C@H](O)[C@@H](O)[C@@H](O[C@H]3[C@H](O)[C@@H](O)C(O)O[C@@H]3CO)O[C@@H]2CO)[C@H](O)[C@@H](O)[C@@H]1N[C@H]1C=C(CO)[C@@H](O)[C@H](O)[C@H]1O` (some centres unmarked) [acarbose, reference compound]: the IC50 in assay [1] is > 200 µM and 208 µM; in assay [3], 11.3 ± 0.2 µM.

These data come from PMC7699847, “Acylated Aminooligosaccharides from the Yellow Sea Streptomyces sp. HO1518 as Both α-Glucosidase and Lipase Inhibitors” (Marine Drugs, 2020).
